Experimental data taken from ChEMBL document CHEMBL1147997, “Design, synthesis and biological evaluation of new oligopyrrole carboxamides linked with tricyclic DNA-intercalators as potential DNA ligands or topoisomerase inhibitors” (2007).
Activity calls are given as the source filed them. No cut-off for these calls is given here.

Tests used:
[1] = target: T1, DNA topoisomerase 1 (Homo sapiens) (UniProt P11387); assay: Inhibition of human topoisomerase 1 by DNA relaxation assay
T1 sequence (whole entry): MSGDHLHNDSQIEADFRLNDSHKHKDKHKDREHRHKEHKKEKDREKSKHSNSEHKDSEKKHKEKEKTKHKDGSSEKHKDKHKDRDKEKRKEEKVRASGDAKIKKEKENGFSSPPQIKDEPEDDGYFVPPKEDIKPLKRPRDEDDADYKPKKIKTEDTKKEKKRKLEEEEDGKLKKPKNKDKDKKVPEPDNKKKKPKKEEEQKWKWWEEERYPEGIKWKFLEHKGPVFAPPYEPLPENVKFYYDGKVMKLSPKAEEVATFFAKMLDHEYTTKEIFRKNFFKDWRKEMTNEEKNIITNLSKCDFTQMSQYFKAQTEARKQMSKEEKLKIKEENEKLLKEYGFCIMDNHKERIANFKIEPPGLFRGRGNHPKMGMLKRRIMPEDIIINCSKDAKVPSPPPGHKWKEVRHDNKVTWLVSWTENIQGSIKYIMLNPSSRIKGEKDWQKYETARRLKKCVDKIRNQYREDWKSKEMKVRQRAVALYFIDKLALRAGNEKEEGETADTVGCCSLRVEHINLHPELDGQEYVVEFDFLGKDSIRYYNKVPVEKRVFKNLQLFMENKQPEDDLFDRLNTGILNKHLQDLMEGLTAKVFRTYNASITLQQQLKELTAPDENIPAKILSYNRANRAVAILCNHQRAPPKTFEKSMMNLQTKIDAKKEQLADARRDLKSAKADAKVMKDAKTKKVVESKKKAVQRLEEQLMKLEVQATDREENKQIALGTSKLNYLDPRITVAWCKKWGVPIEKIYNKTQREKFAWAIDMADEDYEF

NCI-H460 = assay: Antitumor activity against human NCI-H460 cells at 0.1 uM assessed as cell growth; format: functional
SF-268 = assay: Antitumor activity against human SF268 cells at 0.1 uM assessed as cell growth; format: functional
MCF7 = assay: Antitumor activity against human MCF7 cells at 0.1 uM assessed as cell growth; format: functional
MDA-MB-435 = assay: Growth inhibition of human MDA-MB-435 cells; format: functional
[2] = Growth inhibition of human NCI-H322 M cells; format: functional; details: NCI-H322M
UACC-257 = assay: Growth inhibition of human UACC257 cells; format: functional

| Compound | Activity [1] | Activity (NCI-H460) | Activity (SF-268) | Activity (MCF7) | further results |
| --- | --- | --- | --- | --- | --- |
| CN(C)CCCNC(=O)c1cc(NC(=O)c2cc(NC(=O)CCCN3C(=O)c4cccc5cc([N+](=O)[O-])cc(c45)C3=O)cn2C)cn1C | inactive | – | – | – | – |
| CN(C)CCCNC(=O)c1cc(NC(=O)c2cc(NC(=O)CCCN3C(=O)c4cccc5cccc(c45)C3=O)cn2C)cn1C | inactive | – | – | – | – |
| CN(C)CCCNC(=O)c1cc(NC(=O)CCNC(=O)c2ccc3c(c2)C(=O)c2ccccc2C3=O)cn1C | – | 103% | 113% | 32% | – |
| CN(C)CCCNC(=O)c1cc(NC(=O)c2cc(NC(=O)CCCN3c4ccccc4C=Cc4ccccc43)cn2C)cn1C | – | – | – | – | GI50 (MDA-MB-435): 57.5 µM |
| CN(C)CCCNC(=O)c1cc(NC(=O)c2cc(NC(=O)CCn3c4ccccc4c(=O)c4ccccc43)cn2C)cn1C | – | 52% | – | – | – |
| CN(C)CCCNC(=O)c1cc(NC(=O)c2cc(NC(=O)CCCn3c4ccccc4c(=O)c4ccccc43)cn2C)cn1C | inactive | 47% | – | 48% | – |
| CN(C)CCCNC(=O)c1cc(NC(=O)c2cc(NC(=O)Cn3c4ccccc4c(=O)c4ccccc43)cn2C)cn1C | inactive | – | – | – | – |
| CN(C)CCCNC(=O)c1cc(NC(=O)c2cc(NC(=O)CCNC(=O)c3c4ccccc4nc4ccccc34)cn2C)cn1C | inactive | – | – | – | – |
| CN(C)CCCNC(=O)c1cc(NC(=O)c2cc(NC(=O)CCNS(=O)(=O)c3ccc4c(c3)C(=O)c3ccccc3C4=O)cn2C)cn1C | – | 84% | 98% | 27% | GI50 [2]: 35.7 µM |
| CN(C)CCCNC(=O)c1cc(NC(=O)CCNS(=O)(=O)c2ccc3c(c2)C(=O)c2ccccc2C3=O)cn1C | – | 1% | 2% | 1% | GI50 (UACC-257): 54.4 µM |
